According to patent publication US8604217B2, “Compound, a process for its preparation, a pharmaceutical composition, use of a compound, a method for modulating or regulating serine/threonine kinases and a serine/threonine kinases modulating agent” (Selvita S.A., priority 2009, dated 2013):
Values after ≈ are worked out from the molar mass of the structure shown.

Tests used:
[1] = system: human acute lymphocytic leukemia E6.1 Jurkat cells; test: Growth inhibition test (MTS) on E6.1 Jurkat cells; format: cell-based; details: 72 hours, read-out: Jurkat ED50
[2] = system: human erytroblast leukemia HEL-92.1.7 cells; test: Growth inhibition test (MTS) on HEL-92.1.7 cells; format: cell-based; details: 72 hours, read-out: HEL92 ED50
Procedure: Ten thousand cells of human erytroblast leukemia HEL-92.1.7 were inoculated into each well of a 96-well microplate (manufactured by Corning Corp.) using RPMI 1640 medium (culture medium) containing 10% fetal calf serum (FCS). Next day, a dimethyl sulfoxide (DMSO) solution of each test compound prepared in a concentration of 10 mmol/L was further diluted with culture medium to the desired concentrations (0.1, 0.5, 1, 2.5, 5 and 10 micromol/L), and the diluted solution was added to each well. The individual wells were further cultured in 5% carbon dioxide at 37° C. for 72 hours. After completion of the culture, 10 μl MTS (3-(4,5-Dimethyl-2-thiazolyl)-5-(carboxymethoxyphenyl)-2-(4-sulfophenyl)-2H-tetrazolium, inner salt assay (CellTiter96® AQueous One Solution Cell Proliferation Assay, Promega) was added to each well, and culturing was performed in 5% carbon dioxide at 37° C. for 2 hours. Using a microplate spectrophotometer (Synergy 2 multi-mode microplate reader (BioTek)), the absorbance of each well was measured at 490 nm. The value for cells not incorporated with a test compound was designated as 100%. By comparing these values with the absorbance difference obtained at the well in which each test compound was added, the cell viability (% viability) after treatment with the test compound was calculated.

[3] = system: human breast adenocarcinoma MCF7 cells; test: Growth inhibition test (MTS) on MCF7 cells; format: cell-based; details: Homo sapiens, MCF7, 72 hours, read-out: MCF-7 ED50
Outline: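 MCF7 cells seeded in DMEM with 10% FCS, dosed next day at 0.1–10 micromol/L (diluted from 10 mmol/L DMSO stock) and cultured 72 h at 37° C, 5% CO2. MTS added for 2 h, absorbance read at 490 nm; % viability calculated relative to untreated cells as 100%.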

[4] = system: human hepatoma HepG2 cells; test: Growth inhibition test (MTS) on HepG2 cells; format: cell-based; details: 72 hours, read-out: HepG2 ED50
Outline: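 HepG2 cells in DMEM with 10% FCS were exposed for 72 h at 37 °C, 5% CO2, to 0.1, 0.5, 1, 2.5, 5 and 10 micromol/L compound. MTS was then added for 2 h and absorbance read at 490 nm. % viability was calculated relative to untreated cells set at 100%.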

[5] = system: tumors derived from MV4-11 cells xenografted in nude mice; test: In vivo anticancer activity, MV4-11 xenograft; details: QD, PO; for TGI (%): 150 mg/kg, 21 days, MV4-11 xenograft in nude mice; for tumor growth inhibition (in words): after 21 days of treatment
Procedure: The anticancer activity of compounds 20, 359 and 416 was assessed on tumors derived from MV4-11 cells xenografted in nude mice. Mice were inoculated with 5*10^6 cells and the tumor volume was measured until it reached 100 mm^3. Throughout the whole study tumor volume has been measured (FIG. 2) and tumor growth inhibition (TGI) was calculated.

[6] = Solubility in phosphate buffer pH 7.4; format: physicochemical; details: aqueous buffer, kinetic from dmso stock, pH 7.4, 24 hours at 37° C., 1% DMSO
Description: In general, tetrahalogenated benzimidazoles are poorly soluble compounds, what renders their chances for successful therapeutic administration in commonly used routes of administration and standard conditions. In contrast to previously published tetrabromobenzimidazoles exemplified by DMAT, certain compounds provided in the application show a markedly increase in water solubility. As solubility is one of the key parameters that influences compound pharmacokinetics, permeability and therefore also activity in vitro and in vivo, improved solubility of the selected compounds is a surprising feature that can lead to improved efficacy in treating PIM kinase associated disease conditions.

[7] = target: PKCμ(h) (Homo sapiens (Human), UniProt Q15139); test: KinaseProfiler kinase panel; format: biochemical
Chain of PKCμ(h) (Q15139 whole entry): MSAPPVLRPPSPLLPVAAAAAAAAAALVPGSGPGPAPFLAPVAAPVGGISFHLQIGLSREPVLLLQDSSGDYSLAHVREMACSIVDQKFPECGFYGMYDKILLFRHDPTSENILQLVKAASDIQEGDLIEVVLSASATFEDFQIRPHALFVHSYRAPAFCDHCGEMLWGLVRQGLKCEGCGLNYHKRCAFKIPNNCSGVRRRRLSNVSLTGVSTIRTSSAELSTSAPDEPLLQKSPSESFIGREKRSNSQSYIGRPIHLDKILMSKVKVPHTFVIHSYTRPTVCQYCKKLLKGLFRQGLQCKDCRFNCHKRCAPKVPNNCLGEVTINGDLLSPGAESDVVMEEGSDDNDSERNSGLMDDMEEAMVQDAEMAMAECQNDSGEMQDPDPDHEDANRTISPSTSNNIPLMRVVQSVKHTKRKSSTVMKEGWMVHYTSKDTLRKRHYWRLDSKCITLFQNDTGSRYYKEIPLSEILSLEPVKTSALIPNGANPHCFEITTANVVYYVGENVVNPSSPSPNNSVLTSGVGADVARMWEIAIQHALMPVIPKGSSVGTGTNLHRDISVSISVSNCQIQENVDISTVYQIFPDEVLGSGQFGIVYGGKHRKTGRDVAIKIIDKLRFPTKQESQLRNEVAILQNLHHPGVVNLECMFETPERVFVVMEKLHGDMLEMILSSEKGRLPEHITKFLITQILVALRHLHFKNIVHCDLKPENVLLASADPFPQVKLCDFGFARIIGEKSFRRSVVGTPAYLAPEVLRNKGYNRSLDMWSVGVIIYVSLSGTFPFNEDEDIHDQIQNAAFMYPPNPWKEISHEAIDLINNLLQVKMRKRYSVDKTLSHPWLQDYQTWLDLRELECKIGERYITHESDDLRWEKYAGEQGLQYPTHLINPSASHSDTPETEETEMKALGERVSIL

[8] = target: ARK5(h) (Homo sapiens (Human), UniProt O60285); test: KinaseProfiler kinase panel; format: biochemical
Chain of ARK5(h) (O60285 whole entry): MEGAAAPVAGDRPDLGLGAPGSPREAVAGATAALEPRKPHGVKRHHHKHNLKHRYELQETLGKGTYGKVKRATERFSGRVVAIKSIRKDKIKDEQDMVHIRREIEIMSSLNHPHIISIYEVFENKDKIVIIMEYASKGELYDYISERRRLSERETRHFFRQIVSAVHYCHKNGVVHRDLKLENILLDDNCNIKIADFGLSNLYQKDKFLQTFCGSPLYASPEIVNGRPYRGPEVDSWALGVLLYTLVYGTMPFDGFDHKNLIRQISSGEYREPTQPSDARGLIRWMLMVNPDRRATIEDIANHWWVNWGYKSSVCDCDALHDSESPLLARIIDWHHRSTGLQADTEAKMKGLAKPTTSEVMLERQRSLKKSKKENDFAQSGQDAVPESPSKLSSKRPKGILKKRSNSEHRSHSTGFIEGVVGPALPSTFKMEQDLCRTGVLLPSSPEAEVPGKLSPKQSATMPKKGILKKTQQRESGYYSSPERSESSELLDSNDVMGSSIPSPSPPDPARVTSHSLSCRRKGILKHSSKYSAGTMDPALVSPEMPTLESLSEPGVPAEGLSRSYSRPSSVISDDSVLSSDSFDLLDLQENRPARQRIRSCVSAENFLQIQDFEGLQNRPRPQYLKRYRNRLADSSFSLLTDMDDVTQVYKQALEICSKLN

[9] = target: FGFR4(h) (Homo sapiens (Human), UniProt P22455); test: KinaseProfiler kinase panel; format: biochemical
Chain of FGFR4(h) (P22455 22-802): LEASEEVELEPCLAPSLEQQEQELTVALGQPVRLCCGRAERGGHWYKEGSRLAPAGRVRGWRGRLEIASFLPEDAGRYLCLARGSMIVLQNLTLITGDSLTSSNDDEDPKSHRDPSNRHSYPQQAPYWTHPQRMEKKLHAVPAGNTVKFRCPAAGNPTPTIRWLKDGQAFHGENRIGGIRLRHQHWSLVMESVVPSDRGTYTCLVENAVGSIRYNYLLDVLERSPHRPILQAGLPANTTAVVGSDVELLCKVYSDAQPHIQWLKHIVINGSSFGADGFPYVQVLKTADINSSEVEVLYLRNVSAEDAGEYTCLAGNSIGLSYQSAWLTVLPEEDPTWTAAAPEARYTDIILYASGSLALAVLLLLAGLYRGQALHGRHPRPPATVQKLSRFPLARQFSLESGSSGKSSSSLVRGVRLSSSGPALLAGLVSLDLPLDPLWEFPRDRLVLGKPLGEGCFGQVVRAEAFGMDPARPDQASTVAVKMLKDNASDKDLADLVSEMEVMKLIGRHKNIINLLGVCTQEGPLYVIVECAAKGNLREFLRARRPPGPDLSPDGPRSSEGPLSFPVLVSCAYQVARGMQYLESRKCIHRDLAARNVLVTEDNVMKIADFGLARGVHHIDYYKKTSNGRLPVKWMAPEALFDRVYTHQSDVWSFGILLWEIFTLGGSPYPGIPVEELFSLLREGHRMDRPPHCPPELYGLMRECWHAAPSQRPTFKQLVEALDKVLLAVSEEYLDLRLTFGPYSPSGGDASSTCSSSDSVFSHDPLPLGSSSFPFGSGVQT

IC50 [2] | IC50 [3] | IC50 [4] | Compound | also measured
4500 nM | 1780 nM | 2400 nM | Brc1c(Br)c(Br)c2[nH]c(N[C@H]3COC[C@@H]3N3CCCC3)nc2c1Br [Compound 337, 4,5,6,7-tetrabromo-N-((3R,4R)-tetrahydro-4-(pyrrolidin-1-yl)furan-3-yl)-1H-benzo[d]imidazol-2-amine] | 
5680 nM | 2500 nM | 2760 nM | Brc1c(Br)c(Br)c2[nH]c(N[C@H]3COC[C@@H]3N3CCCCC3)nc2c1Br [Compound 338, 4,5,6,7-tetrabromo-N-((3R,4R)-tetrahydro-4-(piperidin-1-yl)furan-3-yl)-1H-benzo[d]imidazol-2-amine] | 
6000 nM | 2750 nM | 2510 nM | NCc1ccccc1CNc1nc2c(Br)c(Br)c(Br)c(Br)c2[nH]1 [Compound 349, N-(2-(aminomethyl)benzyl)-4,5,6,7-tetrabromo-1H-benzo[d]imidazol-2-amine] | 
7650 nM | 3030 nM | 2650 nM | CN1CCCC(Nc2nc3c(Br)c(Br)c(Br)c(Br)c3[nH]2)CC1 (stereo not drawn) [Compound 358, 4,5,6,7-tetrabromo-N-(1-methylazepan-4-yl)-1H-benzo[d]imidazol-2-amine] | 
3850 nM | 1600 nM | 1850 nM | CC(C)n1c(N2CCNCC2)nc2c(Br)c(Br)c(Br)c(Br)c21 [Compound 359, 4,5,6,7-tetrabromo-1-isopropyl-2-(piperazin-1-yl)-1H-benzo[d]imidazole] | TGI (%) [5]: −84.7%; tumor growth inhibition (in words) [5]: most pronounced tumor growth inhibition
5100 nM | 2150 nM | 1700 nM | Brc1c(Br)c(Br)c2[nH]c(NC3CCCNCC3)nc2c1Br (stereo not drawn) [Compound 366, N-(azepan-4-yl)-4,5,6,7-tetrabromo-1H-benzo[d]imidazol-2-amine] | 
3000 nM | 1500 nM | 1330 nM | Brc1c(Br)c(Br)c2c(nc(N3CCNCC3)n2Cc2ccccc2)c1Br [Compound 374, 1-benzyl-4,5,6,7-tetrabromo-2-(piperazin-1-yl)-1H-benzo[d]imidazole] | 
9040 nM | 6190 nM | 4200 nM | CN(C)C1CCCN(c2nc3c(Br)c(Br)c(Br)c(Br)c3[nH]2)C1 (stereo not drawn) [Compound 378, 1-(4,5,6,7-tetrabromo-1H-benzo[d]imidazol-2-yl)-N,N-dimethylpiperidin-3-amine] | 
6120 nM | 2470 nM |  | Brc1c(Br)c(Br)c2[nH]c(N3CCC(C4CCNCC4)CC3)nc2c1Br [Compound 386, 4,5,6,7-tetrabromo-2-(4-(piperidin-4-yl)piperidin-1-yl)-1H-benzo[d]imidazole] | 
2720 nM | 1260 nM | 1310 nM | CCn1c(N2CCNCC2)nc2c(Br)c(Br)c(Br)c(Br)c21 [Compound 416, 4,5,6,7-tetrabromo-1-ethyl-2-(piperazin-1-yl)-1H-benzo[d]imidazole] | TGI (%) [5]: −102.8%; tumor growth inhibition (in words) [5]: most pronounced tumor growth inhibition; remaining activity at 1 µM [7]: 30%; remaining activity at 1 µM [8]: 93%; remaining activity at 1 µM [9]: 94%
3280 nM | 2540 nM | 1850 nM | CCCn1c(N2CCNCC2)nc2c(Br)c(Br)c(Br)c(Br)c21 [Compound 417, 4,5,6,7-tetrabromo-2-(piperazin-1-yl)-1-propyl-1H-benzo[d]imidazole] | 
5710 nM | 3490 nM |  | Brc1c(Br)c(Br)c2[nH]c(NC3CCNCC3)nc2c1Br [Compound 435, 4,5,6,7-tetrabromo-N-(piperidin-4-yl)-1H-benzo[d]imidazol-2-amine] | 
600 nM | 1300 nM | 700 nM | CCn1c(N2CCN(CCN3CCNCC3)CC2)nc2c(Br)c(Br)c(Br)c(Br)c21 [Compound 441, 4,5,6,7-tetrabromo-1-ethyl-2-(4-(2-(piperazin-1-yl)ethyl)piperazin-1-yl)-1H-benzo[d]imidazole] | 
800 nM | 2000 nM | 1500 nM | CCn1c(N2CCN(CCCN3CCOCC3)CC2)nc2c(Br)c(Br)c(Br)c(Br)c21 [Compound 450] | 
 |  | > 10000 nM | CN(C)c1nc2c(Br)c(Br)c(Br)c(Br)c2n1CC(=O)O [Compound K66, 1-carboxymethyl-2-dimethylamino-4,5,6,7-tetrabromo-benzimidazole, reference compound] | IC50 [1]: > 10000 nM

Continued, molecule first:

Compound | IC50 [2] | IC50 [3] | IC50 [4] | also measured
NCCCNc1nc2c(Br)c(Br)c(Br)c(Br)c2[nH]1 [Compound 11, N-(3-aminopropyl)-4,5,6,7-tetrabromo-1H-benzo[d]imidazol-2-amine] | 5700 nM | 4700 nM | 2840 nM | IC50 [1]: 3460 nM
Brc1c(Br)c(Br)c2[nH]c(N3CCNCC3)nc2c1Br [Compound 20, 4,5,6,7-tetrabromo-2-(piperazin-1-yl)-1H-benzo[d]imidazole] | 6040 nM | 2470 nM | 2860 nM | TGI (%) [5]: −57.8%; tumor growth inhibition (in words) [5]: most pronounced tumor growth inhibition; solubility at 24 h [6]: 81 µM (≈ 41.9 µg/mL)
NC1CCC(Nc2nc3c(Br)c(Br)c(Br)c(Br)c3[nH]2)CC1 (stereo not drawn) [Compound 87, N1-(4,5,6,7-tetrabromo-1H-benzo[d]imidazol-2-yl)cyclohexane-1,4-diamine] | 9070 nM | 5620 nM | 3800 nM | IC50 [1]: 5810 nM
NC1CCCC(Nc2nc3c(Br)c(Br)c(Br)c(Br)c3[nH]2)C1 (stereo not drawn) [Compound 336, N1-(4,5,6,7-tetrabromo-1H-benzo[d]imidazol-2-yl)cyclohexane-1,3-diamine] |  | 6200 nM | 4870 nM | 
C[C@@H]1CN(c2nc3c(Br)c(Br)c(Br)c(Br)c3[nH]2)[C@@H](C)CN1 [Compound 364, 4,5,6,7-tetrabromo-2-((2S,5R)-2,5-dimethylpiperazin-1-yl)-1H-benzo[d]imidazole] | 5570 nM | 1600 nM | 2330 nM | 
CC(C)NC1CCCCC1Nc1nc2c(Br)c(Br)c(Br)c(Br)c2[nH]1 (stereo not drawn) [Compound 369, N1-(4,5,6,7-tetrabromo-1H-benzo[d]imidazol-2-yl)-N2-isopropylcyclohexane-1,2-diamine] | 6200 nM | 1600 nM | 1400 nM | 
CCCCCNC1CCCCC1Nc1nc2c(Br)c(Br)c(Br)c(Br)c2[nH]1 (stereo not drawn) [Compound 413, N1-(4,5,6,7-tetrabromo-1H-benzo[d]imidazol-2-yl)-N2-pentylcyclohexane-1,2-diamine] | 3290 nM | 1300 nM | 1360 nM | 
Brc1c(Br)c(Br)c2c(Br)n[nH]c2c1Br [Compound K64, 3,4,5,6,7-pentabromo-1H-indazole, reference compound] |  |  | > 10000 nM | IC50 [1]: > 10000 nM
CN(C)c1nc2c(Br)c(Br)c(Br)c(Br)c2[nH]1 [DMAT, 2-dimethylamino-4,5,6,7-tetrabromo-1H-benzimidazole, reference compound] |  | > 10000 nM | > 10000 nM | IC50 [1]: 8180 nM; solubility at 24 h [6]: < 10 µM
Brc1c(Br)c(Br)c2[nH]nnc2c1Br [TBB, 4,5,6,7-tetrabromo-1Hbenzotriazole, reference compound] |  |  | > 10000 nM | IC50 [1]: > 10000 nM
Brc1c(Br)c(Br)c2[nH]cnc2c1Br [TBI, 4,5,6,7-tetrabromo-1H-benzimidazole, reference compound] |  |  | > 10000 nM | IC50 [1]: > 10000 nM
